# US8859569B2, “Substituted annellated pyrimidines and use thereof” (Bayer Pharma Aktiengesellschaft, priority 2011, dated 2014)
# What was measured:
# [1] = target: T1, recombinant guanylate cyclase reporter cell line (Rattus norvegicus, UniProt P19686+P20595); assay: Action on recombinant guanylate cyclase reporter cell line; assay type: cell-based
# T1 construct: expressed in transfected cells
# T1 sequence (P20595 1-619): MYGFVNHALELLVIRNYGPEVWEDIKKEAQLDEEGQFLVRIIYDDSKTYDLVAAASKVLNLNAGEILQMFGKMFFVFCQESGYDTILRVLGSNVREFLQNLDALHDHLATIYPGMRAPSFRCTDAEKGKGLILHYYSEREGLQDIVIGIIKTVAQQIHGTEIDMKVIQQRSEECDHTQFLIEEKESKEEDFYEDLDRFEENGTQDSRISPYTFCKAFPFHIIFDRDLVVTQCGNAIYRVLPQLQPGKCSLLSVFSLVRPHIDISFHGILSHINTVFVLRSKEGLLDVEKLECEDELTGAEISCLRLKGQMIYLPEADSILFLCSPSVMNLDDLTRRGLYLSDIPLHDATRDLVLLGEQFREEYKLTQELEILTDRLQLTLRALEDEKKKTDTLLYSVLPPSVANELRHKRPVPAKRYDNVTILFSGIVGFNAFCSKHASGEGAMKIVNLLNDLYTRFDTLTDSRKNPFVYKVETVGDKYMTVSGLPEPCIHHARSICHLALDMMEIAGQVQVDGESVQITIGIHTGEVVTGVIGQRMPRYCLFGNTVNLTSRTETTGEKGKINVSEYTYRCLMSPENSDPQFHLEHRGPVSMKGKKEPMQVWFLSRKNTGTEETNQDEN
# T1 sequence (P19686 1-690): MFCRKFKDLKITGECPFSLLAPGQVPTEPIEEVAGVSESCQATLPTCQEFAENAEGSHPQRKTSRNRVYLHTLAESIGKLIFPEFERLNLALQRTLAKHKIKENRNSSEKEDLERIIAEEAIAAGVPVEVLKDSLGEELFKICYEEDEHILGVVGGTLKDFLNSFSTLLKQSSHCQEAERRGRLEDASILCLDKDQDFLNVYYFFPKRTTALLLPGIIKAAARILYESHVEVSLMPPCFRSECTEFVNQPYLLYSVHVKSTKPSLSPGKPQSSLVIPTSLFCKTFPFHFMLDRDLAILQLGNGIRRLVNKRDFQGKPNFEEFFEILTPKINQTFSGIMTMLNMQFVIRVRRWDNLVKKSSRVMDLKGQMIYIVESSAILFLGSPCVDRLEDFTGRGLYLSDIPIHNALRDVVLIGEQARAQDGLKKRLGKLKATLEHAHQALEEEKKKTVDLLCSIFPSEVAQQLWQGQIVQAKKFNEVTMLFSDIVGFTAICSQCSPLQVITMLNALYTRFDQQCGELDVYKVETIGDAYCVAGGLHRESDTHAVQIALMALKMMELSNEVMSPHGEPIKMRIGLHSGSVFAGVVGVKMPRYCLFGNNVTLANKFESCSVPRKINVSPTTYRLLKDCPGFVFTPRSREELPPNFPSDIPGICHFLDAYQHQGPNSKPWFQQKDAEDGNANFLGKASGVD
# Experimental: B-2. Action on Recombinant Guanylate Cyclase Reporter Cell Line
# The cellular action of the compounds according to the invention is determined on a recombinant guanylate cyclase reporter cell line, as described in F. Wunder et al., Anal. Biochem. 339, 104-112 (2005).
# aorta rings = assay: Vessel-relaxing action in vitro (aorta rings, phenylephrine contraction); details: concentration required to reduce phenylephrine-induced contraction of rabbit aorta rings by 50%
# Experimental: B-1. Vessel-relaxing Action in vitro
# Rabbits are stunned with a blow on the back of the neck and exsanguinated. The aorta is removed, freed from adhering tissue, separated into rings with a width of 1.5 mm, and placed individually, with preloading, in 5-ml organ baths with carbogen-gassed Krebs-Henseleit solution at 37° C. with the following composition (mM in each case): sodium chloride: 119; potassium chloride: 4.8; calcium chloride dihydrate: 1; magnesium sulphate heptahydrate: 1.4; potassium dihydrogen phosphate: 1.2; sodium hydrogen carbonate: 25; glucose: 10. The contraction force is recorded with Statham UC2 cells, amplified and digitized via an A/D converter (DAS-1802 HC, Keithley Instruments Munich) and recorded in parallel on a continuous-line recorder. To produce contraction, phenylephrine is added to the bath cumulatively in increasing concentration. After several control cycles, the test substance is added in increasing dosage in each subsequent pass and the level of contraction is compared with the level of contraction reached in the immediately preceding pass. This is used for calculating the concentration that is required to reduce the level of the control value by 50% (IC50 value). The standard application volume is 5 μl, and the proportion of DMSO in the bath solution corresponds to 0.1%.
# [2] = target: T2, human phosphodiesterase 5 (PDE-5) (Homo sapiens, UniProt O76074); assay: Inhibition of human phosphodiesterase 5 (PDE-5), SPA assay; assay type: biochemical; details: PDE-5 preparation from human platelets, [8-3H]cGMP substrate
# T2 construct: PDE-5 preparations are obtained from human platelets by lysis; from tissue; host or cells: human platelets
# Method in brief: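 Scintillation proximity read-out with yttrium beads after 60 min room-temperature hydrolysis of 0.025 μCi [8-3H]cGMP, pH 7.5 Tris/MgCl2/EDTA buffer. Enzyme is a human platelet PDE-5 fraction, diluted to keep substrate turnover below 70%. Test concentrations 4 μM–0.0018 μM final; IC50 from inhibition curves.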
SMILES,MEC (minimal effective concentration) [1] [μm],IC50 (aorta rings; Oryctolagus cuniculus) [nM],IC50 [2] [nM],IC50 (aorta rings) [nM]
"CC1(C)C(=O)Nc2nc(-c3nn(Cc4ccccc4F)c4ncc(F)cc34)nc(NCC(O)C(F)(F)F)c21 (single isomer, unassigned) [Example 96-1, 2-[5-Fluoro-1-(2-fluorobenzyl)-1H-pyrazolo[3,4-b]pyridin-3-yl]-5,5-dimethyl-4-[(3,3,3-trifluoro-2-hydroxypropyl)amino]-5,7-dihydro-6H-pyrrolo[2,3-d]pyrimidin-6-one]",0.1,–,150,1470
"CC1(C)C(=O)Nc2nc(-c3nn(Cc4ccccc4F)c4ncc(F)cc34)nc(NCC(O)C(F)(F)F)c21 (single isomer, unassigned) [Example 96-2, 2-[5-Fluoro-1-(2-fluorobenzyl)-1H-pyrazolo[3,4-b]pyridin-3-yl]-5,5-dimethyl-4-[(3,3,3-trifluoro-2-hydroxypropyl)amino]-5,7-dihydro-6H-pyrrolo[2,3-d]pyrimidin-6-one]",0.01,–,26,601
"CC(C)(N)CNc1nc(-c2nn(Cc3ccccc3F)c3ncc(F)cc23)nc2c1C(C)(C)C(=O)N2 [Example 3, 4-[(2-Amino-2-methylpropyl)amino]-2-[5-fluoro-1-(2-fluorobenzyl)-1H-pyrazolo[3,4-b]pyridin-3-yl]-5,5-dimethyl-5,7-dihydro-6H-pyrrolo[2,3-d]pyrimidin-6-one]",3.0,469,46,–
"CC1(C)C(=O)Nc2nc(-c3nn(Cc4ccccc4F)c4ncc(F)cc34)nc(NCCC(F)(F)F)c21 [Example 5, 2-[5-Fluoro-1-(2-fluorobenzyl)-1H-pyrazolo[3,4-b]pyridin-3-yl]-5,5-dimethyl-4-[(3,3,3-trifluoropropyl)amino]-5,7-dihydro-6H-pyrrolo[2,3-d]pyrimidin-6-one]",0.03,285,130,–
"CC1(C)C(=O)Nc2nc(-c3nn(Cc4ccccc4F)c4ncc(F)cc34)nc(NCC(N)C(F)(F)F)c21 (centres unmarked) [Example 6, 4-[(2-Amino-3,3,3-trifluoropropyl)amino]-2-[5-fluoro-1-(2-fluorobenzyl)-1H-pyrazolo[3,4-b]pyridin-3-yl]-5,5-dimethyl-5,7-dihydro-6H-pyrrolo[2,3-d]pyrimidin-6-one]",–,680,120,–
"CC1(C)C(=O)Nc2nc(-c3nn(Cc4ccccc4F)c4ncc(F)cc34)nc(NCC(F)F)c21 [Example 7, 4-[(2,2-Difluoroethyl)amino]-2-[5-fluoro-1-(2-fluorobenzyl)-1H-pyrazolo[3,4-b]pyridin-3-yl]-5,5-dimethyl-5,7-dihydro-6H-pyrrolo[2,3-d]pyrimidin-6-one]",0.1,200,110,–
"CC1(C)C(=O)Nc2nc(-c3nn(Cc4cccc(F)c4F)c4ncc(F)cc34)nc(OCCC(F)(F)F)c21 [Example 110, 2-[1-(2,3-Difluorobenzyl)-5-fluoro-1H-pyrazolo[3,4-b]pyridin-3-yl]-5,5-dimethyl-4-(3,3,3-trifluoropropoxy)-5,7-dihydro-6H-pyrrolo[2,3-d]pyrimidin-6-one]",–,10000,840,–
"CC1(C)C(=O)Nc2nc(-c3nn(Cc4cccc(F)c4F)c4ncc(F)cc34)nc(O)c21 [Example 116, 2-[1-(2,3-Difluorobenzyl)-5-fluoro-1H-pyrazolo[3,4-b]pyridin-3-yl]-4-hydroxy-5,5-dimethyl-5,7-dihydro-6H-pyrrolo[2,3-d]pyrimidin-6-one]",0.03,–,83,–

# The remaining lines, values ahead:
MEC (minimal effective concentration) [1] [μm],IC50 (aorta rings; Oryctolagus cuniculus) [nM],IC50 [2] [nM],IC50 (aorta rings) [nM],SMILES
1,1450,12,–,"CC1(C)C(=O)Nc2nc(-c3nn(Cc4ccccc4F)c4ncccc34)nc(N3CCC(N)C3)c21 (racemic) [Example 106, 4-(3-Aminopyrrolidin-1-yl)-2-[1-(2-fluorobenzyl)-1H-pyrazolo[3,4-b]pyridin-3-yl]-5,5-dimethyl-5,7-dihydro-6H-pyrrolo[2,3-d]pyrimidin-6-one]"
0.1,114,140,–,"COc1nc(-c2nn(Cc3ccccc3F)c3ncccc23)nc2c1C(C)(C)C(=O)N2 [Example 1, 2-[1-(2-Fluorobenzyl)-1H-pyrazolo[3,4-b]pyridin-3-yl]-4-methoxy-5,5-dimethyl-5,7-dihydro-6H-pyrrolo[2,3-d]pyrimidin-6-one]"
0.3,54,8,–,"CC1(C)C(=O)Nc2nc(-c3nn(Cc4ccccc4F)c4ncc(F)cc34)nc(NCCO)c21 [Example 2, 2-[5-Fluoro-1-(2-fluorobenzyl)-1H-pyrazolo[3,4-b]pyridin-3-yl]-4-[(2-hydroxyethyl)amino]-5,5-dimethyl-5,7-dihydro-6H-pyrrolo[2,3-d]pyrimidin-6-one]"
0.1,62,6,–,"CC(C)(O)CNc1nc(-c2nn(Cc3ccccc3F)c3ncc(F)cc23)nc2c1C(C)(C)C(=O)N2 [Example 4, 2-[5-Fluoro-1-(2-fluorobenzyl)-1H-pyrazolo[3,4-b]pyridin-3-yl]-4-[(2-hydroxy-2-methylpropyl)amino]-5,5-dimethyl-5,7-dihydro-6H-pyrrolo[2,3-d]pyrimidin-6-one]"
0.3,309,400,–,"CC1(C)C(=O)Nc2nc(-c3nn(Cc4ccccc4F)c4ncc(F)cc34)nc(N3CC(F)C3)c21 [Example 8, 4-(3-Fluoroazetidin-1-yl)-2-[5-fluoro-1-(2-fluorobenzyl)-1H-pyrazolo[3,4-b]pyridin-3-yl]-5,5-dimethyl-5,7-dihydro-6H-pyrrolo[2,3-d]pyrimidin-6-one]"
0.1,21000,230,–,"CC1(C)C(=O)Nc2nc(-c3nn(Cc4ccccc4F)c4ncc(F)cc34)nc(NC(C3CC3)C3CC3)c21 [Example 9, 4-[(Dicyclopropylmethyl)amino]-2-[5-fluoro-1-(2-fluorobenzyl)-1H-pyrazolo[3,4-b]pyridin-3-yl]-5,5-dimethyl-5,7-dihydro-6H-pyrrolo[2,3-d]pyrimidin-6-one]"
0.03,–,210,–,"CC1(C)C(=O)Nc2nc(-c3nn(Cc4ccccc4F)c4ncccc34)nc(Nc3ccccc3)c21 [Example 87, 2-[1-(2-fluorobenzyl)-1H-pyrazolo[3,4-b]pyridin-3-yl]-5,5-dimethyl-4-(phenylamino)-5,7-dihydro-6H-pyrrolo[2,3-d]pyrimidin-6-one]"
